# Experimental data from US12042523B2, “Compositions and methods for managing or improving bone disorders, joint disorders, cartilage disorders, or a combination thereof” (Unigen, Inc., priority 2014, dated 2024).
# Tests used:
# [1] = target: T1, BKB1 receptor (BKB1R) (Homo sapiens, UniProt P46663); assay: Bradykinin B1 (BKB1) radioligand binding assay
# T1 construct: Membranes from human IMR-90 lung fibroblasts, stimulated with IL-1β; endogenous in cells; host or cells: human IMR-90 lung fibroblasts stimulated with IL-1β (membranes)
# T1 sequence (P46663 1-353): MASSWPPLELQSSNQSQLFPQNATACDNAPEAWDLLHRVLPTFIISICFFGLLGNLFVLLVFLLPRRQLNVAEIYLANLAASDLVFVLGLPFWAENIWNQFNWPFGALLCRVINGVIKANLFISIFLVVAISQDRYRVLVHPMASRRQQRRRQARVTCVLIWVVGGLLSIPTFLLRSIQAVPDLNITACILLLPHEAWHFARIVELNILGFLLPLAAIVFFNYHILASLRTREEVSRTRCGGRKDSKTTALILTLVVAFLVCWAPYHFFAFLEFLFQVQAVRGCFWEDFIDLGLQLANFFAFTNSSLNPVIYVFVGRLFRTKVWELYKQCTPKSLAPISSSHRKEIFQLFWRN
# Procedure: Bradykinin B1 (BKB1) radioligand binding assay was conducted to determine the inhibition activity of Curcuma longa OE and extract fractions on BKB1 binding to BKB1 receptor (BKB1R). Membranes from human IMR-90 lung fibroblasts, stimulated with IL-1β in modified HEPES buffer (PH=7.4), were incubated with a test sample in the presence of 0.9 nM [^3H](Des-Arg^10)-Kallidin for 60 minutes at room temperature. After incubation, membranes were filtered and washed five times with modified DPBS buffer (pH=7.4). Samples were scintillation counted to determine the amount of specifically bound to the BKB1 receptor containing membrane.
# BKB1 binding assay, as described in Example 15, was used to test curcumin compound isolated from a Curcuma longa extract (Compound 11), as well as commercially available curcumin purchased from Sigma-Aldrich (C1386). Curcumin was tested at final concentrations ranging from 200 μM to 5 nM. Binding curves were plotted by non-linear regression fit (using GraphPad Prizm software). Ki values were computed using Cheng-Prusoff algorithm. In addition, inhibition of BKB2 receptor binding activity by curcumin was examined with methods similar to those described in Example 15 for the BKB1 receptor with some modifications. Bradykinin Radioligand Binding Assay (BKB2) was conducted using a standard assay under the following conditions: • 1. […] Reading: TopCount.
# [2] = test system: rhIL-1α-mediated degradation of proteoglycan in rabbit articular cartilage explants; assay: Ex vivo glycosaminoglycans (GAG) release assay; assay type: cell-based; settings: for effect on rhIL-1α-mediated degradation of PG / % GAG release: rhIL-1α 5 ng/ml; for % GAG release: IL-1α alone = 100
# Procedure: Articular cartilage from hock joints of rabbits (2.5 kg body weight) was removed immediately after each animal was sacrificed and articular cartilage explants were obtained by following the method described by Sandy et al. (Biochem. Biophy Acta 543:36, 1978).
# Briefly, after the articular surfaces were surgically exposed under sterile conditions, approximately 200-220 mg articular surfaces per joint were dissected and submerged into complete medium (DMEM, supplemented with heat inactivated 5% FBS; penicillin 100 U/ml; streptomycin 100 ug/ml). They were then rinsed several times with the complete medium and incubated for 1 to 2 days at 37° C. in a humidified 5% CO2/95% air incubator for stabilization. The complete medium was replaced with a basal medium (DMEM, supplemented with heat-inactivated 1% FBS, 10 mM HEPES, and penicillin 100 U/ml streptomycin 100 μg/ml). Approximately 30 mg cartilage pieces (2×3×0.35 mm/piece) were placed in 24-well plates and treated with given concentrations of test agents. After pretreatment for 1 h, 5 ng/ml of rhIL-1α was added to the culture medium and further incubated at 37° C. in a humidified 5% CO2/95% air incubator. The culture medium was collected 24 h later and stored at −20° C. until assay.
# The amount of sulphated GAGs (e.g., released from proteoglycans) in the medium at the end of the reaction reflects the amount of articular cartilage degradation, which was determined using the commercially available 1,9-dimethy-methylene blue method according to the instructions of the manufacturer (Blyscan™ assay, Accurate Chemical and Scientific Corp., Westbury, New York).
structure (smiles),measurement,setting,value
COc1cc(/C=C/C(=O)CC(=O)/C=C/c2ccc(O)c(OC)c2)ccc1O [Curcumin],BKB1 versus BKB2 binding inhibition,[1],selective BKB1 antagonist
"OC[C@H]1O[C@@H](Oc2cc(O)cc(/C=C/c3ccc(O[C@@H]4O[C@H](CO)[C@@H](O)[C@H](O)[C@H]4O)cc3O)c2)[C@H](O)[C@@H](O)[C@@H]1O [Mulberoside A, mulberroside A]",effect on rhIL-1α-mediated degradation of PG,[2],strong inhibitory effect
"CC(=O)N[C@H]1C(O)O[C@H](CO)[C@@H](O)[C@@H]1O (stereo partly drawn) [NAG, N-Acetyl Glucosamine]",inhibition at 150 µg/mL,"[2]; Oryctolagus cuniculus, 150 μg/ml, individual",31.8%
same,% GAG release,[2]; sample 12.5 μg/ml,95.7%
same,% GAG release,[2]; sample 25 μg/ml,99.2%
same,% GAG release,[2]; sample 50 μg/ml,87.5%
same,% GAG release,[2]; sample 75 μg/ml,81.2%
Oc1cc(O)cc(/C=C/c2ccc(O)cc2O)c1 [Oxyresveratrol],effect on rhIL-1α-mediated degradation of PG,[2],strong inhibitory effect
CC(C)=CCc1c(-c2ccc(O)cc2O)oc2c3c(cc(O)c2c1=O)OC(C)(C)C=C3 [Morusin],effect on rhIL-1α-mediated degradation of PG,[2],strong inhibitory effect
